Assay results published in patent EP2970359B1, “FLUORINATED PYRIMIDINE ANALOGS AND METHODS OF USE THEREOF” (Epigenetics Pharma LLC, priority 2013, dated 2014).
pIC50: −log10 of the molar value. Several values for one entry are separate records, joined by “and”; a condition that tells them apart may be missing. Equal values may be shown once. Entries after “also recorded” stand apart in the source; their conditions may differ. Read-outs that look alike come from different tables or passages of the source.

Columns and labels:
NCI-H460 = experiment: In vitro cytotoxicity (GI50), non-small cell lung cancer cell line; details: Homo sapiens
Protocol: (§1) The in vitro cytotoxicity was measured in the following cell lines: NCI-H460 (ATCC #HTB-177) (non-small cell lung), HCT-116 (ATCC #CCL-247) (colorectal), HL-60 (ATCC #CCL-240) (leukemia), and MDA-MB-231 (ATCC #HTB-26) (breast). Table 4. Growth Inhibition (GI50) Values (µM) for Selected Cell Lines.

HCT-116 = experiment: In vitro cytotoxicity (GI50), colorectal cancer cell line; details: Homo sapiens
Protocol: as §1

HL-60 = experiment: In vitro cytotoxicity (GI50), leukemia cell line; format: cell-based; details: Homo sapiens
Protocol: as §1

MDA-MB-231 = experiment: In vitro cytotoxicity (GI50), breast cancer cell line; details: Homo sapiens
Protocol: as §1

L1210 [1] = experiment: In vitro cytotoxicity, leukemia cell line; details: for pIC50: Mus musculus, L1210, read-out: In vitro cytotoxicity Leukemia L1210
[2] = following subcutaneous administration; reported; cited from earlier work
THP-1 cells = experiment: Giemsa stain of treated cells (morphology); format: cell-based; details: compared to vehicle control, FIGURE 10
ACHN = experiment: In vitro cytotoxicity, renal cancer cell line; format: cell-based; details: Homo sapiens, Table 1, asterisk not explained
[3] = known; cleavage of the base at the 6-position of the cytosine ring; cited from earlier work
OVCAR-8 = experiment: In vitro cytotoxicity, ovarian cancer cell line; format: cell-based; details: Homo sapiens, Table 1, asterisk not explained
Kasumi-1 cells [4] = experiment: Giemsa stain of treated cells (morphology); format: cell-based; details: compared with vehicle control, FIGURE 11
THP-1 leukemia cells = experiment: Growth inhibition of leukemia cell line compared with decitabine; format: cell-based; details: THP-1, equimolar concentrations; FIGURE 7
P388 = experiment: In vitro cytotoxicity, leukemia cell line; details: Mus musculus, P388, read-out: In vitro cytotoxicity Leukemia P388*
DNMT1 = molecular target: T1, DNMT1 (Homo sapiens, UniProt P26358); experiment: Western blot of DNMT1 in Kasumi-1 cells; format: cell-based; details: two concentrations, FIGURE 9
T1 construct: endogenous in cells; host or cells: Kasumi-1

[5] = system: DNA methyltransferase (DNMT); experiment: In vitro DNA methyltransferase inhibition in HCT-116 cells (EpiQuick DNA Methyltransferase Activity/Inhibition Assay Kit)
Kasumi-1 cells [6] = experiment: Growth inhibition of leukemia cell line compared with decitabine; format: cell-based; details: Kasumi-1, equimolar concentrations; FIGURE 8
Stability in water = format: physicochemical
L1210 [7] = details: Table 3
[8] = NCI-H460, read-out: Growth Inhibition (GI50) NCI-H460
[9] = HCT-116, read-out: Growth Inhibition (GI50) HCT-116
[10] = HL-60, Table 4, read-out: Growth Inhibition (GI50) HL-60
[11] = MDA-MB-231, read-out: Growth Inhibition (GI50) MDA-MB-231
[12] = NCI-H460, read-out: In vitro cytotoxicity NSCL NCI-H460
[13] = HCT-116, read-out: In vitro cytotoxicity Colon HCT-116
[14] = MDA-MB-231, read-out: In vitro cytotoxicity Breast MDA-MB-231

T1 sequence (P26358 whole entry): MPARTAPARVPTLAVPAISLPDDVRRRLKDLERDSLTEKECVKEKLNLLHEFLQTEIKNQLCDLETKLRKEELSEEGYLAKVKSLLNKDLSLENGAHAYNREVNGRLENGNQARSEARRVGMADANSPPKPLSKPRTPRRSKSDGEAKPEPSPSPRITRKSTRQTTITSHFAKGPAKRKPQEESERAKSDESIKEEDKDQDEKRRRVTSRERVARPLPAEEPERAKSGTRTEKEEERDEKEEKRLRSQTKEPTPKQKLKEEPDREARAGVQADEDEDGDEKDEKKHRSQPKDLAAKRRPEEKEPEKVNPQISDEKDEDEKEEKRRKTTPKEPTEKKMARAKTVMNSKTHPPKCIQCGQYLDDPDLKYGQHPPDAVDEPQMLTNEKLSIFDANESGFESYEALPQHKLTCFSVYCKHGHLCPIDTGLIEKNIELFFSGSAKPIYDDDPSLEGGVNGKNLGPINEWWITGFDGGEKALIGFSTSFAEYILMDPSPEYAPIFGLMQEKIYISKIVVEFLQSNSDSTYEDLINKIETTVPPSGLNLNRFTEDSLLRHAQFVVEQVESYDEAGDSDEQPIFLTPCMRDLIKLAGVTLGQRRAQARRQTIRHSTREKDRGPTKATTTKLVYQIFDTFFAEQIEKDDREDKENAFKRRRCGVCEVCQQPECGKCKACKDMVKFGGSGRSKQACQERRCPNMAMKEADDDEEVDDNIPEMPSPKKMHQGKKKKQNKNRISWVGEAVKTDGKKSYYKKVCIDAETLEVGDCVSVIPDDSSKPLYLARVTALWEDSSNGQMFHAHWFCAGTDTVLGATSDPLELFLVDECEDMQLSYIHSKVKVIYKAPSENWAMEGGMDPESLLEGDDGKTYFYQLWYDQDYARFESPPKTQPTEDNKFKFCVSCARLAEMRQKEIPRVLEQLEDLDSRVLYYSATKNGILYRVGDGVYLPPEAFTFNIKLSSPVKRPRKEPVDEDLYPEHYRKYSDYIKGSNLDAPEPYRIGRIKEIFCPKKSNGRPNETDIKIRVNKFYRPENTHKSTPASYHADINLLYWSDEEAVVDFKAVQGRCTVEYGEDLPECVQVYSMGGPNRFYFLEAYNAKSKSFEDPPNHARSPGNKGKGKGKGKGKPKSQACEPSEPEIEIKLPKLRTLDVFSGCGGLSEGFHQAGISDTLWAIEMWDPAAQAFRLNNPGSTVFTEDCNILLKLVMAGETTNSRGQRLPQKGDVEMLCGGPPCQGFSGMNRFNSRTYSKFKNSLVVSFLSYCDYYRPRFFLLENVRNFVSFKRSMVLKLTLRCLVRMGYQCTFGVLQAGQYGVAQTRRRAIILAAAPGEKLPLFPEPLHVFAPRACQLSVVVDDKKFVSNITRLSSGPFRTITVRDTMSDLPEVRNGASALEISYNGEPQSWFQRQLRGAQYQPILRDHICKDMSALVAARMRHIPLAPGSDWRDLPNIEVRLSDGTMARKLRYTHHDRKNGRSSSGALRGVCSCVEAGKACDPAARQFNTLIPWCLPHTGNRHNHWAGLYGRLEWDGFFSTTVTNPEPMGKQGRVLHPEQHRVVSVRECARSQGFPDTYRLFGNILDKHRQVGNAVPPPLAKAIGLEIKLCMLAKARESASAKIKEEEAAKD

SMILES | GI50 (NCI-H460; [8]) | GI50 (HCT-116; [9]) | GI50 (HL-60; [10]) | GI50 (MDA-MB-231; [11]) | pIC50 (L1210 [1]) | pIC50 (NCI-H460; [12]) | pIC50 (HCT-116; [13]) | pIC50 (MDA-MB-231; [14]) | other results
NC1=NC(=O)N([C@@H]2O[C@H](CO)[C@@H](O)[C@H]2O)CN1 [5,6-dihydro-5-azacytidine, reference compound] | 4.84 µM | 21.4 µM | 0.03 µM | > 31.2 µM | – | – | – | – | –
Nc1ncn([C@@H]2O[C@H](CO)[C@@H](O)[C@H]2O)c(=O)n1 [Azacytidine, 5-azacytidine] | – | – | 0.44 µM | – | 5.62 to 5.77 | – | – | – | half-life [2]: 41 min
Nc1ncn([C@H]2C[C@H](O)[C@@H](CO)O2)c(=O)n1 [Decitabine, 5-azadeoxycytidine, reference compound] | 13 µM | > 31.2 µM | – | > 31.2 µM | – | 4.36 to 4.89 | < 4.20 | < 4.20 | morphologic changes (Giemsa stain) (THP-1 cells): morphologic changes suggestive of cell differentiation; GI50 (HL-60; HL-60, read-out: Growth Inhibition (GI50) HL-60): 0.27 µM; pIC50 (ACHN): < 3.00; stability in water [3]: unstable in water; pIC50 (OVCAR-8): < 3.00; morphologic changes (Giemsa stain) (Kasumi-1 cells [4]): morphologic changes suggestive of cell differentiation
Nc1ncn([C@@H]2O[C@H](CO)[C@@H](O)C2(F)F)c(=O)n1 [NUC013, 2',2'-difluoro-5-azadeoxycytidine] | 4.39 µM | 4.54 µM | 1.51 µM | > 31.2 µM | 5.99 | 5.36 | 5.34 | < 4.20 | morphologic changes (Giemsa stain) (THP-1 cells): morphologic changes suggestive of cell differentiation; inhibitory effect on cell growth / cytoreduction compared with decitabine (THP-1 leukemia cells): stronger inhibitory effect; also recorded: stronger cytoreduction; GI50 (HCT-116; HCT-116): 4.54 µM; pIC50 (P388): 6.32; pIC50 (ACHN): 6.05; pIC50 (OVCAR-8): 4.59; DNMT1 inhibition by Western blot compared with equimolar decitabine (DNMT1): weaker DNMT1 inhibition; morphologic changes (Giemsa stain) (Kasumi-1 cells [4]): morphologic changes suggestive of cell differentiation; Percent Inhibition of DNMT ([5]; 1 µM, 24 hours, HCT-116 cells, one value per experiment (1-4)): 61.73% and 35.77% and 62.63%; potency as a DNMTI relative to 5-azacytidine ([5]; colon cancer cells, FIGURE 6): approximately 10 fold; inhibitory effect on cell growth / cytoreduction compared with decitabine (Kasumi-1 cells [6]): slightly weaker effect; also recorded: weaker cytoreduction
NC1=NC(=O)N([C@@H]2O[C@H](CO)[C@@H](O)C2(F)F)CN1 [NUC014, 2',2'-difluoro-5,6-dihydro-5-azadeoxycytidine] | – | – | – | – | 4.04 | < 4.51 | < 4.51 | < 4.51 | cytotoxicity against leukemia cell line L1210 (in words) (L1210 [1]): moderate cytotoxicity; stability in an aqueous environment (Stability in water): stable in an aqueous environment; hydrolytic cleavage at the 6-position of the cytosine (Stability in water; aqueous environment): does not undergo hydrolytic cleavage
O=c1ncccn1[C@@H]1O[C@H](CO)[C@@H](O)C1(F)F [NUC019, 2'-deoxy-2',2'-difluorozebularine] | 136 µM | 310 µM | – | 166 µM | – | – | – | – | –
O=c1ncccn1[C@H]1O[C@H](CO)[C@@H](O)C1(F)F [NUC020] | – | – | – | – | – | – | – | – | GI50 (NCI-H460; [12]): 136 µM; GI50 (L1210 [7]): 346 µM; GI50 (HCT-116; [13]): 279 µM; GI50 (MDA-MB-231; [14]): 213 µM
O=c1ncccn1[C@@H]1O[C@H](CO)[C@@H](O)[C@H]1O [Zebularine, reference compound] | – | – | – | – | 3.97 | 4.00 | 4.32 | 3.84 | –
Nc1ccn([C@@H]2O[C@H](CO)[C@@H](O)C2(F)F)c(=O)n1 [gemcitabine, reference compound] | 0.02 µM | 0.01 µM | 0.03 µM | 0.72 µM | – | – | – | – | –
